# Read-outs that look alike come from different tables or passages of the source. Peptide text beside a SMILES is read from it.
# How the values were obtained:
# [1] = system: A. baumannii ATCC 19606; type: cell-based, Acinetobacter baumannii; details: ATCC 19606, 20 h
# From the text: (§1) The following Gram-negative bacteria were used in our study: A. baumannii ATCC 19606, E. coli ATCC 11775, E. coli AIC221 (E. coli MG1655 phnE_2::FRT), E. coli AIC222 (E. coli MG1655 pmrA53 phnE_2::FRT (colistin resistant)), K. pneumoniae ATCC 13883, P. aeruginosa PAO1 and P. aeruginosa PA14. The following Gram-positive bacteria were also used in our study: S. aureus ATCC 12600, S. aureus ATCC BAA-1556 (methicillin-resistant strain), E. faecalis ATCC 700802 (vancomycin-resistant strain) and E. faecium ATCC 700221 (vancomycin-resistant strain). Bacteria were grown from frozen stocks and plated on Luria–Bertani (LB) or Pseudomonas isolation agar plates (P. aeruginosa strains) and incubated overnight at 37 °C. After the incubation period, a single colony was transferred to 5 ml of LB medium, and cultures were incubated overnight (16 h) at 37 °C. The following day, an inoculum was prepared by diluting the overnight cultures 1:100 in 5 ml of the respective media and incubating them at 37 °C until bacteria reached logarithmic phase (OD600 = 0.3–0.5).
# (§2) The in vitro antimicrobial activity of the peptides was assessed by using the broth microdilution assay. […] Aqueous solutions of the peptides were added to the plate at concentrations ranging from 1 to 64 μmol l^−1. […] The optical density of the plates was measured at 600 nm using a spectrophotometer. All assays were done as three biological replicates.
# [2] = system: 11 clinically relevant bacterial pathogens; type: cell-based; details: Supplementary Dataset 2; against the 11 pathogens tested
# From the text: as §1, §2
# [3] = system: HEK293T cells
# Description: HEK293T cells were obtained from the American Type Culture Collection (CRL-3216). The cells were cultured in high-glucose Dulbecco’s modified Eagle’s medium supplemented with 1% penicillin and streptomycin (antibiotics) and 10% fetal bovine serum and grown at 37 °C in a humidified atmosphere containing 5% CO2.
# One day before the experiment, an aliquot of 100 μl of the cells at 50,000 cells per ml was seeded into each well of the cell-treated 96-well plates used in the experiment (that is, 5,000 cells per well). […] After the incubation period, we performed the 3-(4,5-dimethylthiazol-2-yl)-2,5-diphenyltetrazolium bromide tetrazolium reduction assay (MTT assay)[53]. The MTT reagent was dissolved at 0.5 mg ml^−1 in medium without phenol red and was used to replace cell culture supernatants containing the peptides (100 μl per well), and the samples were incubated for 4 h at 37 °C in a humidified atmosphere containing 5% CO2 yielding the insoluble formazan salt. The resulting salts were then resuspended in hydrochloric acid (0.04 mol l^−1) in anhydrous isopropanol and quantified by spectrophotometric measurements of absorbance at 570 nm. All assays were done as three biological replicates.
# Unless otherwise stated, all assays were performed in three independent biological replicates as indicated in each figure legend and Methods sections. The cytotoxic activities values were estimated using non-linear regression based on the range of concentrations screened and were shown as the values that cause lysis of 50% of the cells in the experiment. Two technical replicates were performed in the cytotoxicity assays within each of the three biological replicates.
SMILES,"Minimal inhibitory concentration, A. baumannii ATCC19606 [1]",Active or Inactive [2],CC50 ([3]; 24 h),CC50 [3],TI (therapeutic index) [3],TI (therapeutic index) ([3]; 24 h)
CC[C@H](C)[C@H](NC(=O)[C@H](CC(C)C)NC(=O)[C@H](Cc1c[nH]cn1)NC(=O)[C@@H](NC(=O)[C@H](CC(C)C)NC(=O)[C@H](CC(C)C)NC(=O)[C@H](Cc1c[nH]cn1)NC(=O)CN)[C@@H](C)CC)C(=O)NCC(=O)N[C@@H](CCCCN)C(=O)N[C@@H](C)C(=O)N[C@H](C(=O)N[C@@H](CC(C)C)C(=O)N[C@@H](C)C(=O)N[C@@H](CC(C)C)C(=O)O)[C@@H](C)O [Arctoterin-1] (H-GHLLIHLIGKATLAL-OH; N-terminus and C-terminus assumed),64 µM,Active,> 128 µM,–,–,–
CC[C@H](C)[C@H](NC(=O)[C@@H](N)[C@@H](C)O)C(=O)N[C@@H](CCCCN)C(=O)N[C@@H](CC(C)C)C(=O)N[C@@H](Cc1ccccc1)C(=O)N[C@@H](CC(C)C)C(=O)N[C@@H](CO)C(=O)N[C@@H](Cc1ccccc1)C(=O)N[C@@H](CCCCN)C(=O)N[C@@H](CC(C)C)C(=O)O [Xenothrixin-1] (H-TIKLFLSFKL-OH; N-terminus and C-terminus assumed),8 µM,Active,70.77 µM,70.77 µM,8.84,–
CC[C@H](C)[C@H](N)C(=O)N[C@@H](Cc1ccccc1)C(=O)N[C@@H](CC(C)C)C(=O)N[C@@H](Cc1c[nH]cn1)C(=O)N[C@@H](CC(C)C)C(=O)N[C@@H](CCCCN)C(=O)N[C@H](C(=O)N[C@@H](CC(C)C)C(=O)N[C@@H](CCCCN)C(=O)N[C@H](C(=O)N[C@H](C(=O)N[C@@H](Cc1c[nH]cn1)C(=O)N[C@@H](CC(C)C)C(=O)N[C@@H](CC(C)C)C(=O)O)[C@@H](C)CC)[C@@H](C)CC)[C@@H](C)O [Mammuthusin-1] (H-IFLHLKTLKIIHLL-OH; N-terminus and C-terminus assumed),8 µM,Active,> 128 µM,–,–,–
CC[C@H](C)[C@H](NC(=O)[C@@H]1CCCN1C(=O)[C@H](CC(N)=O)NC(=O)[C@@H]1CCCN1C(=O)[C@@H]1CCCN1C(=O)[C@H](CCCCN)NC(=O)[C@@H](N)CCCCN)C(=O)N[C@@H](CCCCN)C(=O)N1CCC[C@H]1C(=O)N[C@@H](CCCCN)C(=O)N[C@H](C(=O)N1CCC[C@H]1C(=O)N[C@@H](CC(C)C)C(=O)N[C@@H](CO)C(=O)N[C@@H](C)C(=O)N1CCC[C@H]1C(=O)N[C@@H](CCCNC(=N)N)C(=O)N[C@@H](CCCCN)C(=O)N[C@@H](CO)C(=O)N1CCC[C@H]1C(=O)N[C@@H](CC(N)=O)C(=O)N[C@H](C(=O)N[C@H](C(=O)N[C@@H](CCCCN)C(=O)N[C@@H](Cc1ccc(O)cc1)C(=O)N[C@@H](CCCNC(=N)N)C(=O)N[C@@H](CC(C)C)C(=O)N[C@@H](CCCCN)C(=O)N[C@@H](Cc1ccccc1)C(=O)N[C@@H](CCCNC(=N)N)C(=O)O)C(C)C)[C@@H](C)O)C(C)C [Mammuthusin-5] (H-KKPPNPIKPKVPLSAPRKSPNTVKYRLKFR-OH; N-terminus and C-terminus assumed),32 µM,Active,> 128 µM,–,–,> 4
CC[C@H](C)[C@H](NC(=O)[C@H](CC(N)=O)NC(=O)[C@H](CC(C)C)NC(=O)[C@@H](NC(=O)[C@H](Cc1ccccc1)NC(=O)[C@@H]1CCCN1C(=O)[C@@H]1CCCN1C(=O)[C@@H](NC(=O)[C@H](CO)NC(=O)[C@H](CC(C)C)NC(=O)[C@H](CCCCN)NC(=O)[C@H](CCCCN)NC(=O)[C@H](Cc1ccc(O)cc1)NC(=O)[C@@H](NC(=O)[C@@H](N)CCCCN)[C@@H](C)CC)[C@@H](C)O)[C@@H](C)O)C(=O)N[C@@H](CCCNC(=N)N)C(=O)N[C@H](C(=O)N[C@@H](CC(C)C)C(=O)N1CCC[C@H]1C(=O)N[C@@H](CCCCN)C(=O)N[C@H](C(=O)N[C@@H](CCCCN)C(=O)N[C@@H](Cc1ccccc1)C(=O)N1CCC[C@H]1C(=O)N[C@@H](CCCCN)C(=O)O)C(C)C)[C@@H](C)O [Mylodonin-3] (H-KIYKKLSTPPFTLNIRTLPKVKFPK-OH; N-terminus and C-terminus assumed),16 µM,Active,> 128 µM,–,–,–
CC[C@H](C)[C@H](NC(=O)[C@H](CCCNC(=N)N)NC(=O)[C@H](Cc1c[nH]cn1)NC(=O)[C@H](CCCCN)NC(=O)[C@@H](NC(=O)CNC(=O)[C@H](CCCNC(=N)N)NC(=O)[C@H](C)NC(=O)[C@H](CCCCN)NC(=O)[C@@H](NC(=O)[C@H](C)NC(=O)[C@@H]1CCCN1C(=O)[C@H](CC(C)C)NC(=O)[C@H](CCC(N)=O)NC(=O)[C@H](CO)NC(=O)[C@H](Cc1ccccc1)NC(=O)[C@H](CC(C)C)NC(=O)[C@H](CC(C)C)NC(=O)[C@@H](NC(=O)[C@@H](N)CS)C(C)C)C(C)C)[C@@H](C)O)C(=O)N[C@@H](CCCCN)C(=O)N[C@@H](Cc1c[nH]c2ccccc12)C(=O)N[C@@H](CC(N)=O)C(=O)N[C@@H](CCCNC(=N)N)C(=O)N[C@@H](CCCCN)C(=O)O [Equusin-4] (H-CVLLFSQLPAVKARGTKHRIKWNRK-OH; N-terminus and C-terminus assumed),16 µM,Active,> 128 µM,–,–,> 8
CC[C@H](C)[C@H](NC(=O)[C@H](CC(C)C)NC(=O)[C@@H](NC(=O)[C@H](CCCCN)NC(=O)[C@H](Cc1c[nH]c2ccccc12)NC(=O)[C@@H](NC(=O)[C@H](CCCCN)NC(=O)[C@H](CC(=O)O)NC(=O)[C@@H](NC(=O)[C@H](CC(C)C)NC(=O)[C@H](Cc1ccccc1)NC(=O)[C@H](C)NC(=O)CNC(=O)[C@@H](NC(=O)[C@@H](N)CCCCN)C(C)C)C(C)C)C(C)C)[C@@H](C)O)C(=O)O [Anomalopterin-2] (H-KVGAFLVDKVWKTLI-OH; N-terminus and C-terminus assumed),32 µM,Active,> 128 µM,–,–,–
CC[C@H](C)[C@H](N)C(=O)N[C@@H](CC(C)C)C(=O)N[C@H](C(=O)N[C@@H](CC(C)C)C(=O)N[C@@H](Cc1ccccc1)C(=O)N[C@H](C(=O)N[C@H](C(=O)N[C@@H](Cc1ccccc1)C(=O)N[C@@H](CCC(N)=O)C(=O)N[C@@H](CC(C)C)C(=O)N[C@@H](CCCCN)C(=O)N[C@H](C(=O)N[C@@H](CO)C(=O)N[C@@H](CCCCN)C(=O)N[C@@H](CC(C)C)C(=O)O)[C@@H](C)CC)[C@@H](C)CC)[C@@H](C)CC)[C@@H](C)O [Paleopropin-2] (H-ILTLFIIFQLKISKL-OH; N-terminus and C-terminus assumed),–,Active,> 128 µM,–,–,> 8

# From publication PMC11310081, “Deep-learning-enabled antibiotic discovery through molecular de-extinction” (Nature Biomedical Engineering, 2024)
